Here are results for eight molecules from PubChem BioAssay (NCI).

Values joined by “and” are separate entries in the source; they are usually repeats but may differ in a detail not shown here. Equal entries are not always repeated.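 48-hour exposure; five concentrations; linearly interpolated endpoints. The concentration for 50% growth inhibition is given as GI50. TGI: total growth inhibition.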

Test systems include KM12 colon; UO-31 renal; LOX IMVI melanoma; OVCAR-5 ovarian; HT29 colon; MDA-MB-435; ACHN renal; OVCAR-4 ovarian; U251 CNS; NCI-H522 lung.
Common to all, as to experiment: growth of human tumour cells (NCI), 48 h

On to `COc1cc([C@@H]2c3cc4c(cc3[C@H](OC3OC5COC(c6ccccc6)OC5C(O)C3O)[C@H]3COC(=O)[C@H]23)OCO4)cc(OC)c1OC` (stereo partly specified), for which the GI50 is 0.326 µM with KM12 colon; 0.366 µM in the test with UO-31 renal; 0.427 µM with LOX IMVI melanoma; 2.58 µM with OVCAR-5 ovarian; 0.356 µM with HT29 colon; 0.245 µM in the test on MDA-MB-435. Also, the GI50 in the test on ACHN renal is 0.596 µM; in the test with OVCAR-4 ovarian, 0.663 µM; in the test on U251 CNS it was 0.34 µM; in the test on NCI-H522 lung, 0.322 µM. Further, the TGI turned out to be 1.55 µM in the test on KM12 colon; 3.85 µM in the test on UO-31 renal; 2.84 µM in the test with LOX IMVI melanoma; 22.5 µM in the test on OVCAR-5 ovarian; 2.32 µM with HT29 colon; 3.08 µM in the test on MDA-MB-435. Moreover, the TGI in the test on ACHN renal was 12.7 µM; with OVCAR-4 ovarian, 11.8 µM; in the test with U251 CNS it was 2.02 µM; with NCI-H522 lung, 3.3 µM.

For the molecule `COC1CC(OC2OC(CO)C(O)C(O)C2O)/C(=C\C#N)C(O)C1OC` (stereo unspecified), the TGI with KM12 colon, in the test with UO-31 renal, with LOX IMVI melanoma, in the test on OVCAR-5 ovarian, with HT29 colon and in the test on MDA-MB-435 was over 100 µM in each case. Moreover, the TGI in the test with ACHN renal, in the test with OVCAR-4 ovarian, in the test on U251 CNS and with NCI-H522 lung was over 100 µM throughout.

For `O=C(Nc1ccc(Cl)cc1)NS(=O)(=O)c1ccc2c(c1)CCC2`, the GI50 in the test on KM12 colon was 19.1 µg/mL; in the test on UO-31 renal it was 21.5 µg/mL; in the test with OVCAR-5 ovarian, 20 µg/mL; in the test with HT29 colon it was 19.7 µg/mL; with ACHN renal, 16.1 µg/mL; with OVCAR-4 ovarian, 37.9 µg/mL. Moreover, the results for the GI50 in the test with U251 CNS and in the test with NCI-H522 lung were 22.5 µg/mL and 4.86 µg/mL, respectively. The TGI in the test on KM12 colon is 98.9 µM and 40.2 µg/mL; in the test on UO-31 renal, > 76.3 µM and 42 µg/mL; in the test on LOX IMVI melanoma, over 79.9 µM; in the test on OVCAR-5 ovarian, > 91 µM and 39.3 µg/mL; in the test on HT29 colon, > 100 µM and 43.4 µg/mL; with MDA-MB-435, 48.3 µM. Further, the TGI in the test on ACHN renal is > 100 µM and 49.6 µg/mL; with OVCAR-4 ovarian, > 100 µM and 88.1 µg/mL; with U251 CNS it was > 77.5 µM and 48.3 µg/mL; with NCI-H522 lung, 94.1 µM and 12.5 µg/mL.

With `CC(C)(O)Cn1c(=O)c(Oc2ccc(F)cc2F)cc2cnc(NC3CCOCC3)nc21`, the GI50 with KM12 colon, with UO-31 renal, in the test on LOX IMVI melanoma, in the test on OVCAR-5 ovarian, with HT29 colon and in the test with MDA-MB-435 was over 25 µM in each case. In addition, the GI50 in the test on ACHN renal, with OVCAR-4 ovarian, with U251 CNS and in the test on NCI-H522 lung was over 25 µM throughout. The TGI in the test with KM12 colon, in the test with UO-31 renal, in the test with LOX IMVI melanoma, in the test with OVCAR-5 ovarian, in the test on HT29 colon and in the test on MDA-MB-435 was over 25 µM in each case. In addition, the TGI in the test with ACHN renal, in the test with OVCAR-4 ovarian, in the test with U251 CNS and in the test with NCI-H522 lung was over 25 µM in each case.

As for `Cc1ccc(CCC(=O)Nc2ncc(Cc3cc(Cl)ccc3Cl)s2)o1`, the GI50 with KM12 colon was 0.0966 µM; with UO-31 renal, 0.594 µM; in the test on LOX IMVI melanoma, 0.221 µM; in the test on OVCAR-5 ovarian, 0.455 µM; with HT29 colon, 0.054 µM; in the test on MDA-MB-435, 0.0286 µM. Besides, the GI50 was 0.665 µM in the test on ACHN renal, 0.767 µM in the test on OVCAR-4 ovarian, 0.202 µM in the test on U251 CNS and 0.229 µM in the test on NCI-H522 lung. The TGI is over 36.3 µM in the test on KM12 colon; 6.43 µM in the test on UO-31 renal; 14.1 µM in the test on OVCAR-5 ovarian; 0.0949 µM with MDA-MB-435; 4.85 µM in the test with ACHN renal; over 20.4 µM in the test on OVCAR-4 ovarian. The TGI is 3.39 µM in the test on U251 CNS and 12.9 µM in the test with NCI-H522 lung.

`C=C1C(=O)OC(CCCCCCCC)C1C(=O)O` (stereo unspecified): the GI50 is 18.3 µM in the test on KM12 colon; 11.7 µM in the test with UO-31 renal; 13.5 µM in the test with LOX IMVI melanoma; 17 µM with OVCAR-5 ovarian; 22.1 µM in the test with HT29 colon; 17.6 µM in the test on MDA-MB-435. Also, the GI50 in the test on ACHN renal was 17.2 µM; with OVCAR-4 ovarian, 15.3 µM; in the test with U251 CNS it was 15.6 µM; in the test with NCI-H522 lung, 7.57 µM. Moreover, the TGI in the test on KM12 colon is 34.4 µM; with UO-31 renal it was 25.6 µM; in the test on LOX IMVI melanoma it was 26.9 µM; in the test on OVCAR-5 ovarian, 31.8 µM; with HT29 colon, 47.2 µM; in the test with MDA-MB-435, 40.4 µM. For the same molecule, the TGI was 31 µM in the test on ACHN renal, 31.8 µM with OVCAR-4 ovarian, 29.4 µM in the test with U251 CNS and 20.1 µM in the test with NCI-H522 lung.

On to `CC(C)Oc1cc(OCC(=O)O)cc(C(=O)N(CCC(N)=O)C(=O)Nc2ccc(C(=O)O)cc2OC(C)C)c1`, for which the GI50 in the test with KM12 colon, in the test on UO-31 renal, with LOX IMVI melanoma, with OVCAR-5 ovarian, in the test on HT29 colon and with MDA-MB-435 was over 100 µM each time. Also, the GI50 in the test with ACHN renal, in the test on OVCAR-4 ovarian, in the test on U251 CNS and in the test with NCI-H522 lung was over 100 µM each time. For the same molecule, the TGI in the test on KM12 colon, in the test with UO-31 renal, in the test on LOX IMVI melanoma, in the test on OVCAR-5 ovarian, with HT29 colon and with MDA-MB-435 was over 100 µM in each case. For the same molecule, the TGI with ACHN renal, in the test with OVCAR-4 ovarian, in the test on U251 CNS and in the test with NCI-H522 lung was over 100 µM throughout.

In the case of `Cc1nc2c(cnn2-c2ccnc3c(C(F)(F)F)cccc23)c(=O)o1`, the GI50 with KM12 colon, in the test with UO-31 renal, in the test on LOX IMVI melanoma, in the test on OVCAR-5 ovarian, with HT29 colon and with MDA-MB-435 was over 100 µM in each case. For the same molecule, the GI50 with ACHN renal, in the test on OVCAR-4 ovarian, with U251 CNS and with NCI-H522 lung was over 100 µM in each case. In addition, the TGI in the test on KM12 colon, in the test with UO-31 renal, in the test on LOX IMVI melanoma, with OVCAR-5 ovarian, with HT29 colon and with MDA-MB-435 was over 100 µM each time. Besides, the TGI with ACHN renal, in the test on OVCAR-4 ovarian, in the test on U251 CNS and in the test on NCI-H522 lung was over 100 µM throughout.
